Reference: PMC4294381, “Metformin repositioning as antitumoral agent: selective antiproliferative effects in human glioblastoma stem cells, via inhibition of CLIC1-mediated ion current” (Oncotarget, 2014)

Legend:
Format in all cases: cell-based
[1] = target: T1, chloride intracellular channel-1 (CLIC1) (Homo sapiens, UniProt O00299); experiment: whole-cell patch clamp in transfected CHO cells; design: FLAG-tagged CLIC1-wt expressed in CHO cells
[2] = target: T2, chloride intracellular channel-1 (CLIC1) (Homo sapiens, UniProt O00299, R29A); experiment: whole-cell patch clamp in transfected CHO cells
T2 construct: FLAG-tagged CLIC1 R29A expressed in CHO cells

[3] = target: T1, chloride intracellular channel-1 (CLIC1); experiment: patch clamp, whole-cell (U87, GBM CSC, CHO expressing human CLIC1) and outside-out single channel
[4] = target: T3, chloride intracellular channel-1 (CLIC1) (Homo sapiens, UniProt O00299, K37A); experiment: whole-cell patch clamp in transfected CHO cells, metformin […]
T3 construct: FLAG-tagged CLIC1 K37A expressed in CHO cells

| Structure (SMILES) | EC50 [1] | EC50 [2] | EC50 [3] | whole-cell patch clamp in transfected CHO cells, metformin 10 mM [4] |
| --- | --- | --- | --- | --- |
| CC1(C2CCCC2)Cc2cc(OCC(=O)O)c(Cl)c(Cl)c2C1=O (stereo not shown) [IAA94] | 27.3 µM | 29.2 µM | – | – |
| CN(C)C(=N)N=C(N)N [Metformin] | – | – | 2100 µM | Metformin significantly inhibited membrane current in CLIC1 wt and K37A-transfected cells (Fig. 7A and D) |
